Assay results from PubChem BioAssay AID248 (DTP/NCI, 2004).
Several values for one entry are separate records, joined by “and”; a condition that tells them apart may be missing. Identical values can stand only once. Toxic doses and inconclusive results are not listed. Rule as the data show it: active = T/C of 150% or more; inactive = T/C below 125%.

Test system: L1210 leukemia ip in BDF1 mice, survival T/C
Experiment: NCI In Vivo Anticancer Drug Screen. Data for tumor model L1210 Leukemia (intraperitoneal) in B6D2F1 (BDF1) mice
Conditions: endpoint: mean survival time, higher = longer survival
Outline: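 Transplanted-tumor mice were given test agent; controls received vehicle only. Survival readings from the two groups were divided (treated over control).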

[1] = dose: 25.0 mg/kg/injection, schedule: Q01DX009 (ip), vehicle: saline
[2] = dose: 50.0 mg/kg/injection, schedule: Q01DX009 (ip), vehicle: saline
[3] = dose: 100.0 mg/kg/injection, schedule: Q01DX009 (ip), vehicle: saline with Tween-80
[4] = dose: 200.0 mg/kg/injection, schedule: Q01DX009 (ip), vehicle: saline with Tween-80
[5] = dose: 400.0 mg/kg/injection, schedule: Q01DX009 (ip), vehicle: saline with Tween-80
[6] = dose: 100.0 mg/kg/injection, schedule: Q01DX005 (ip), vehicle: saline
[7] = dose: 200.0 mg/kg/injection, schedule: Q01DX005 (ip), vehicle: saline
[8] = dose: 100.0 mg/kg/injection, schedule: Q01DX001 (ip), vehicle: saline
[9] = dose: 100.0 mg/kg/injection, schedule: Q04DX003 (ip), vehicle: saline
[10] = dose: 200.0 mg/kg/injection, schedule: Q01DX001 (ip), vehicle: saline
[11] = dose: 200.0 mg/kg/injection, schedule: Q04DX003 (ip), vehicle: saline
[12] = dose: 400.0 mg/kg/injection, schedule: Q01DX001 (ip), vehicle: saline
[13] = dose: 400.0 mg/kg/injection, schedule: Q04DX003 (ip), vehicle: saline
[14] = dose: 100.0 mg/kg/injection, schedule: Q01DX009 (ip), vehicle: saline
[15] = dose: 200.0 mg/kg/injection, schedule: Q01DX009 (ip), vehicle: saline
[16] = dose: 400.0 mg/kg/injection, schedule: Q01DX009 (ip), vehicle: saline
[17] = dose: 50.0 mg/kg/injection, schedule: Q01DX001 (ip), vehicle: saline
[18] = dose: 100.0 mg/kg/injection, schedule: Q04DX003 (ip), vehicle: Klucel (hydroxypropylcellulose) (HPC)
[19] = dose: 200.0 mg/kg/injection, schedule: Q04DX003 (ip), vehicle: Klucel (hydroxypropylcellulose) (HPC)
[20] = dose: 50.0 mg/kg/injection, schedule: Q01DX001 (ip), vehicle: carboxymethylcellulose (CMC)
[21] = dose: 100.0 mg/kg/injection, schedule: Q01DX001 (ip), vehicle: carboxymethylcellulose (CMC)
[22] = dose: 200.0 mg/kg/injection, schedule: Q01DX001 (ip), vehicle: carboxymethylcellulose (CMC)
[23] = dose: 400.0 mg/kg/injection, schedule: Q01DX001 (ip), vehicle: carboxymethylcellulose (CMC)
[24] = dose: 400.0 mg/kg/injection, schedule: Q04DX003 (ip), vehicle: Klucel (hydroxypropylcellulose) (HPC)

Measured: T/C

C[P+](C)(Cc1ccc([N+](=O)[O-])cc1)c1ccccc1
inactive: dose: 12.0 mg/kg/injection, schedule: Q04DX003 (ip), vehicle: saline 98 % of control | [1] 105 % of control | dose: 25.0 mg/kg/injection, schedule: Q04DX003 (ip), vehicle: saline 104 % of control | [2] 109 % of control | dose: 50.0 mg/kg/injection, schedule: Q04DX003 (ip), vehicle: saline 104 % of control

OCCOc1ccc(Cl)cc1
inactive: [3] 98 % of control | [4] 110 % of control | [5] 102 % of control

NC(=O)c1n[nH]c(C2OCC(O)C2O)c1I (centres undefined)
inactive: [6] 100 % of control | [7] 108 % of control

OC(CN1CCCCC1)c1ccncc1 (centres undefined)
inactive: dose: 75.0 mg/kg/injection, schedule: Q04DX003 (ip), vehicle: saline 94 % of control | dose: 150.0 mg/kg/injection, schedule: Q04DX003 (ip), vehicle: saline 94 % of control | dose: 300.0 mg/kg/injection, schedule: Q04DX003 (ip), vehicle: saline 96 % of control

CC1(C)/C(=C\C(=O)O)C2C=CC1C2 (centres undefined)
inactive: [8] 94 % of control | dose: 100.0 mg/kg/injection, schedule: Q01DX009 (ip), vehicle: acetone 86 % of control | [9] 114 % of control | [10] 101 % of control | dose: 200.0 mg/kg/injection, schedule: Q01DX009 (ip), vehicle: acetone 91 % of control | [11] 106 % of control | [12] 100 % of control | [13] 102 % of control

CCOC(=O)CNC(=O)CNC(=O)CNC(=O)CCCCSc1ncnc2nc[nH]c12
inactive: [1] 102 % of control | dose: 25.0 mg/kg/injection, schedule: Q01DX009 (oral), vehicle: saline 106 % of control | [2] 110 % of control | dose: 50.0 mg/kg/injection, schedule: Q01DX009 (oral), vehicle: saline 90 % of control | [14] 96 % of control | dose: 100.0 mg/kg/injection, schedule: Q01DX009 (oral), vehicle: saline 98 % of control | [15] 104 % of control | dose: 200.0 mg/kg/injection, schedule: Q01DX009 (oral), vehicle: saline 95 % of control | [16] 98 % of control | dose: 400.0 mg/kg/injection, schedule: Q01DX009 (oral), vehicle: saline 114 % of control | dose: 800.0 mg/kg/injection, schedule: Q01DX009 (ip), vehicle: saline 96 % of control | dose: 800.0 mg/kg/injection, schedule: Q01DX009 (oral), vehicle: saline 101 % of control

CCOC(=S)NS(=O)(=O)c1ccccc1
inactive: dose: 100.0 mg/kg/injection, schedule: Q01DX001 (ip), vehicle: acetone 98 % of control | dose: 200.0 mg/kg/injection, schedule: Q01DX001 (ip), vehicle: acetone 110 % of control | dose: 400.0 mg/kg/injection, schedule: Q01DX001 (ip), vehicle: acetone 98 % of control

O=C1c2cc([N+](=O)[O-])ccc2NC1(c1c[nH]c2ccccc12)c1c[nH]c2ccc(Br)cc12 (centres undefined)
inactive: [17] 96 % of control | [8] 96 % of control | [10] 96 % of control | [12] 93 % of control

CCOC(=O)c1[nH]c(C)c(CCC(=O)O)c1C
inactive: dose: 12.0 mg/kg/injection, schedule: Q04DX003 (ip), vehicle: Klucel (hydroxypropylcellulose) (HPC) 95 % of control | dose: 25.0 mg/kg/injection, schedule: Q04DX003 (ip), vehicle: Klucel (hydroxypropylcellulose) (HPC) 98 % of control | dose: 50.0 mg/kg/injection, schedule: Q04DX003 (ip), vehicle: Klucel (hydroxypropylcellulose) (HPC) 104 % of control | dose: 100.0 mg/kg/injection, schedule: Q01DX001 (ip), vehicle: Klucel (hydroxypropylcellulose) (HPC) 97 % of control | [18] 103 % of control | dose: 200.0 mg/kg/injection, schedule: Q01DX001 (ip), vehicle: Klucel (hydroxypropylcellulose) (HPC) 97 % of control | [19] 98 % of control | dose: 400.0 mg/kg/injection, schedule: Q01DX001 (ip), vehicle: Klucel (hydroxypropylcellulose) (HPC) 101 % of control

O=C1/C(=C/c2ccco2)CCC2CC3(CCC12)OCCO3 (centres undefined)
inactive: [14] 116 % of control | [9] 92 % of control | [15] 102 % of control | [11] 97 % of control | [16] 98 % of control | [13] 94 % of control

CC1=CCC=C(CNc2ncnc3nc[nH]c23)C1
inactive: dose: 25.0 mg/kg/injection, schedule: Q01DX009 (ip), vehicle: saline with Tween-80 95 % of control | dose: 25.0 mg/kg/injection, schedule: Q04DX003 (ip), vehicle: saline with Tween-80 94 % of control | dose: 50.0 mg/kg/injection, schedule: Q01DX009 (ip), vehicle: saline with Tween-80 93 % of control | dose: 50.0 mg/kg/injection, schedule: Q04DX003 (ip), vehicle: saline with Tween-80 97 % of control | dose: 100.0 mg/kg/injection, schedule: Q04DX003 (ip), vehicle: saline with Tween-80 101 % of control

CCOC(=O)c1c(O)c(C(=O)O)cc2ccccc12
inactive: [20] 106 % of control | [21] 108 % of control | [22] 106 % of control | [23] 106 % of control

OC/C(I)=C(I)\C(I)=C(\I)CO
inactive: dose: 25.0 mg/kg/injection, schedule: Q04DX002 (ip), vehicle: Klucel (hydroxypropylcellulose) (HPC) 90 % of control | dose: 50.0 mg/kg/injection, schedule: Q04DX002 (ip), vehicle: Klucel (hydroxypropylcellulose) (HPC) 90 % of control | dose: 100.0 mg/kg/injection, schedule: Q04DX002 (ip), vehicle: Klucel (hydroxypropylcellulose) (HPC) 94 % of control and 101 % of control

CCCCOC(=O)/C=C\C(=O)NC(N)=O
inactive: dose: 31.0 mg/kg/injection, schedule: Q01DX Z (ip), vehicle: methylcellulose (MC) 98 % of control | dose: 51.0 mg/kg/injection, schedule: Q01DX Z (ip), vehicle: methylcellulose (MC) 101 % of control

CC(Br)CN1CCOCC1 (centres undefined)
inactive: [8] 103 % of control

CN(C)CCOC(=O)/C=C/c1ccccc1
inactive: [2] 89 % of control | [14] 96 % of control | [15] 88 % of control

CCCCCCCC/C=C\CCCCCCCCOB(OCCCCCCCC/C=C/CCCCCCCC)OCCCCCCCC/C=C/CCCCCCCC
inactive: [20] 96 % of control | [21] 105 % of control | [22] 105 % of control | [23] 102 % of control

CC(=O)c1ccc2c(c1)sc1ccccc12
inactive: dose: 50.0 mg/kg/injection, schedule: Q01DX001 (ip), vehicle: other 96 % of control | dose: 100.0 mg/kg/injection, schedule: Q01DX001 (ip), vehicle: other 96 % of control | dose: 200.0 mg/kg/injection, schedule: Q01DX001 (ip), vehicle: other 96 % of control | dose: 400.0 mg/kg/injection, schedule: Q01DX001 (ip), vehicle: other 87 % of control

Nc1ccn(C2OC(CO)C(O)C2O)c(=NC(CO)C(=O)O)n1 (centres undefined)
inactive: [6] 117 % of control | [7] 120 % of control

NNc1ncccc1[N+](=O)[O-]
inactive: [17] 102 % of control | [8] 108 % of control | [10] 96 % of control

CC(C)(C)NC(=O)C1CCCC(C(=O)NC(C)(C)C)C1 (centres undefined)
inactive: [11] 88 % of control | [13] 88 % of control

CCOC(=O)c1cnc(SC)nc1Nc1ccccc1I
inactive: [18] 101 % of control | [19] 97 % of control | [24] 103 % of control

CC(C)(c1cc(Cl)c(OCCO)c(Cl)c1)c1cc(Cl)c(OCCO)c(Cl)c1
inactive: [3] 103 % of control | [4] 103 % of control | [5] 95 % of control

Cc1cccc(C)c1NC(=O)c1ccc(Cl)cc1Cl
inactive: dose: 100.0 mg/kg/injection, schedule: Q01DX009 (ip), vehicle: Klucel (hydroxypropylcellulose) (HPC) 101 % of control | [18] 98 % of control | dose: 200.0 mg/kg/injection, schedule: Q01DX009 (ip), vehicle: Klucel (hydroxypropylcellulose) (HPC) 104 % of control | [19] 101 % of control | dose: 400.0 mg/kg/injection, schedule: Q01DX009 (ip), vehicle: Klucel (hydroxypropylcellulose) (HPC) 101 % of control | [24] 95 % of control
